From article PMC5805504 (Oncotarget, 2017)
Like-named read-outs stand apart in the source and are kept apart here.

Experiments:
pSMAD in 4T1-LP cells = test: TGFβ1-induced pSMAD inhibition in 4T1-LP cells (ELISA)
Protocol: Next, the samples were homogenized for 15 seconds using Bioruptor® UCD-200 by Diagenode at medium power.
Total and pSMAD2/3 levels were assessed independently on two separate ELISA plates. […] To the pSMAD ELISA plate, 100 μL per well of lysate (ranging from 0.04-0.1 mg total protein) was added to the appropriate wells. To the total SMAD ELISA plate, 10% of the total protein that was added to the pSMAD, was added to the appropriate wells (0.004-0.01 mg protein final). A standard curve was also added to both ELISA plates (p- and tSMAD plates) using recombinant HIS-pSMAD2 protein (Eli Lilly and Company). Plates were incubated overnight then washed four times with wash buffer. […] Following one hour of incubation, plates were washed and developed using 3, 3’, 5, 5’-tetramethylbenzidine substrate (TMB; Surmodics/BioFX #TMBW-0100-01) and absorbance (OD) was read at 450 nm on a plate reader.
Percent inhibition of normalized pSMAD2 levels was calculated by first determining the ratio of tSMAD to pSMAD values for the vehicle group. […]

[1] = tested on: TGFβ-responsive p3TP-Lux reporter in Mv1Lu cells; test: Mink lung epithelial cell p3TP-Lux reporter assay; assay type: cell-based; conditions: TGFβ1-mediated luciferase production, read-out: IC50 (SE), Mv1Lu p3TP-Lux
Protocol: The TGFβ-responsive p3TP-Lux reporter construct was stably expressed in Mv1Lu mink lung epithelial cells. […] Media was replaced with 0.5% FBS/DMEM and incubated at 37C/5% CO2 for 2 hours. […] The following day, cells were washed with PBS and lysed with lysis buffer by incubating for 20 to 30 minutes at room temperature. Counts were taken on the MicroBeta JET by injecting 50 μL Luciferase Assay Reagent II (PROMEGA), delay for 1 second and count for 5 seconds. Curve fitting utilized a 4-parameter logistic model and absolute IC50 values were reported.

pSMAD in Mv1Lu cells = test: Endogenous pSMAD inhibition in TGFβ1 stimulated Mv1Lu cells; assay type: cell-based, mink; conditions: data not shown
U87MG glioblastoma cells = test: U87MG in vitro cell migration assay; assay type: cell-based, human
Protocol: U87MG cells were cultured in minimum essential medium (MEM) supplemented with 10% fetal bovine serum (FBS). Eight micron migration plates (24 well) were coated with denatured collagen I (BD, cat# 354326) at 10 μg/ml. Following overnight incubation at 4°C, the lower chambers were washed three times with phosphate buffered saline (PBS) followed by blocking with 1% bovine serum albumin (BSA) for 1 hour. The chambers were washed 3 times in PBS then 200 μl of migration buffer [MEM containing 5% blocking solution (Sigma, cat# 2393), […]] was added. […] After 1 hour of culture, 10 ng/ml of recombinant human (rh) TGFβ1 was added to upper chambers and cells were allowed to migrate in a 37°C incubator for 48 hours. The non-migrated cells were aspirated and wiped off the upper chamber with a cotton swab. The inserts were washed 3 times with PBS and the chambers transferred to new […]. The chambers were fixed with 500 μl of 10% neutral buffered formalin (NBF) for 20 minutes followed by three washes with PBS. The cells were stained with Hoechst at 1:10,000 for 20 minutes in the dark then washed three times with PBS. The membranes were cut with a scalpel, placed on a slide and the pictures were taken using Eclipse 90i Microscope. Image Pro-Analyzer 7.0 was used for analysis of migrated cells.

Protocol for pSMAD in EMT6-LM2 tumors: For in vivo measurement of tumor cell pSMAD activity, tumors were harvested from mice at the indicated time points post-treatment, snap frozen in liquid nitrogen, then pulverized in lysis buffer [EDTA 5 mM, EGTA 5 mM, sodium pyrophosphate 30 mM, sodium chloride 6.7 mM, sodium fluoride 50 mM, and 1% triton in water, pH 7.4 with protease and phosphatase inhibitors (Sigma, p8340, p5726, p0044) and sodium orthovanadate 2.5 mM]. Protein concentration was estimated with DC protein assay kit (BioRad).
Percent inhibition of normalized pSMAD2 levels was calculated by first determining the ratio of tSMAD to pSMAD values for the vehicle group. […] Percent inhibition for compound treated groups was determined relative to the minimum pSMAD inhibition of the vehicle group using the formula: [(100- (normalized pSMAD in the experimental treatment group/normalized pSMAD in the vehicle treated group)]. IC50 of pSMAD inhibition was calculated for the data using non-linear regression to fit the standard four parameter logistic model using GraphPad Prism 6.
Female athymic nu/nu mice or immune competent syngenic BALB/c mice (Charles River or Taconic Farms, respectively, 22 to 28 grams) were maintained in microisolator cages, received food and water ad libitum, and were quarantined for 1 week before experimental manipulation. Sub-confluent Calu6 human non-small cell lung cancer (NSCLC) cells were injected subcutaneously in the flank of nude mice (1x 10^7cells/per animal) in 0.2 mL of culture medium mixed with Matrigel (BD Biosciences, 1:1 v/v). EMT6-LM2 murine triple negative breast cancer tumor cells (5 × 10^5 cells/per animal in the absence of matrigel) were implanted on the flank of BALB/c mice. EMT6-LM2 cells were generated from parental EMT6 cells which were passaged twice from spontaneous lung metastases (LM) following subcutaneous growth. When the tumor volume reached ~250 mm^3, mice were randomized and separated into treatment groups.
Tumors and plasma were collected 2 hours post dosage for analysis of pSMAD and compound levels.
Tumors and plasma were collected at the indicated time points (0.5, 1, 1.5, 2, 4, 8, and 16 hours) for analysis of pSMAD and compound levels.
Percent target inhibition was calculated as described above then was modeled as a function of either dose or plasma concentration.

SMILES: Cc1cccc(-c2nn3c(c2-c2ccnc4ccc(C(N)=O)cc24)CCC3)n1.O [galunisertib, 4-[2-(6-methylpyridin-2-yl)-5,6-dihydro-4H-pyrrolo[1,2-b]pyrazol-3-yl]quinoline-6-carboxamide monohydrate]
- IC50 (pSMAD in 4T1-LP cells; Mus musculus, read-out: IC50, pSMAD activity, 4T1-LP, TGFβ1 10 ng/ml, ELISA): 1760 nM
- IC50 (pSMAD in 4T1-LP cells; read-out: IC50, pSMAD activity, 4T1-LP, TGFβ1 10 ng/ml, ELISA): 1770 nM
- IC50 ([1]; Mv1Lu): 251 nM
- IC50 [1]: 250 nM
- IC50 (pSMAD in Mv1Lu cells): 176 nM
- pSMAD inhibition at maximum plasma exposure (pSMAD in EMT6-LM2 tumors; EMT6-LM2, at 30 minutes): ~ 70%
- TED50, total effective dose to inhibit 50% pSMAD (pSMAD in EMT6-LM2 tumors; EMT6-LM2, single oral dose, tumors 2 hours post dosage): 19.7 mg/kg
- maximum plasma exposure (pSMAD in EMT6-LM2 tumors; EMT6-LM2 time course, single oral dose): up to 6 μM
- TGFβ1-enhanced cell migration (U87MG glioblastoma cells; 1, 3, 10 μM, rhTGFβ1 10 ng/ml, 48 hours): blocked cell migration in a dose dependent manner
- baseline migration in the absence of exogenous TGFβ1 (U87MG glioblastoma cells; galunisertib alone): reduced baseline migration
